# Assay results: ChEMBL document CHEMBL3868595, “Plazomicin is effective in a non-human primate pneumonic plague model” (Bioorg Med Chem, 2016)
# Active and inactive are the calls of the source. The rule behind the calls is not given here.
# Legend:
# [1] = system: Yersinia pestis; test: Antibacterial activity against Yersinia pestis Colorado 92 infected in African green monkey B6873 model assessed as bacterial burden in lung at 12.5 mg/kg, iv administered within 6 hrs post onset of sustained fever as 30 mins infusion for 5 days (reference value: 7.7 10^8CFU/g); type: functional, CO92
# [2] = AUC (0 to 24 hrs) in African green monkey blood at 35 mg/kg administered as iv infusion twice daily for 7 consecutive days measured on day 1 by LC-MS/MS analysis; type: ADME, organism-based; set-up: dose 35 mg/kg, time < 24 hr, route intravenous; details: chlorocebus aethiops
# [3] = Clearance in African green monkey blood at 35 mg/kg administered as iv infusion twice daily for 7 consecutive days measured on day 1 by LC-MS/MS analysis; type: ADME, organism-based; details: chlorocebus aethiops
# [4] = system: African green monkey; test: Toxicity in African green monkey assessed as effect on serum creatinine level at 35 mg/kg administered as iv infusion twice daily for 7 consecutive days measured on day 1 by LC-MS/MS analysis; type: organism-based; details: chlorocebus sabaeus, in vivo
# [5] = system: Yersinia pestis; test: Antibacterial activity against Yersinia pestis Colorado 92 infected in African green monkey assessed as survival of monkey at 25 mg/kg, iv administered within 6 hrs post onset of sustained fever as 30 mins infusion for 5 days; type: functional; details: CO92, iv
# [6] = system: Yersinia pestis; test: Antibacterial activity against Yersinia pestis Colorado 92 infected in African green monkey assessed as improvement in survival of monkey at 6.25 to 25 mg/kg, iv administered within 6 hrs post onset of sustained fever as 30 mins infusion for 10 days; type: functional, organism-based; details: CO92
# [7] = system: Yersinia pestis; test: Antibacterial activity against Yersinia pestis Colorado 92 infected in African green monkey B6469 model assessed as bacterial burden in lung at 25 mg/kg, iv administered within 6 hrs post onset of sustained fever as 30 mins infusion for 5 days (reference value: 7.7 10^8CFU/g); type: functional, CO92
# [8] = system: Yersinia pestis; test: Antibacterial activity against Yersinia pestis Colorado 92 infected in African green monkey B6889 model assessed as bacterial burden in lung at 6.25 mg/kg, iv administered within 6 hrs post onset of sustained fever as 30 mins infusion for 5 days (reference value: 7.7 10^8CFU/g); type: functional, CO92
# [9] = system: Yersinia pestis; test: Antibacterial activity against Yersinia pestis Colorado 92 infected in African green monkey B6960 model assessed as bacterial burden in liver at 6.25 mg/kg, iv administered within 6 hrs post onset of sustained fever as 30 mins infusion for 5 days (reference value: 5.2 10^8CFU/g); type: functional, CO92
# [10] = system: Yersinia pestis; test: Antibacterial activity against Yersinia pestis Colorado 92 infected in African green monkey B6106 model assessed as bacterial burden in tracheobronchial lymph nodes at 25 mg/kg, iv administered within 6 hrs post onset of sustained fever as 30 mins infusion for 5 days (reference value: 7.7 10^9CFU/g); type: functional, organism-based; details: CO92, Lymph node
# [11] = system: Yersinia pestis; test: Antibacterial activity against Yersinia pestis Colorado 92 infected in African green monkey B6106 model assessed as bacterial burden in heart at 25 mg/kg, iv administered within 6 hrs post onset of sustained fever as 30 mins infusion for 5 days (reference value: 2.6 10^7CFU/g); type: functional, organism-based; details: CO92
# [12] = system: Yersinia pestis; test: Antibacterial activity against Yersinia pestis Colorado 92 infected in African green monkey B6106 model assessed as bacterial burden in brain at 25 mg/kg, iv administered within 6 hrs post onset of sustained fever as 30 mins infusion for 5 days (reference value: 1.9 10^6CFU/g); type: functional, CO92
# [13] = system: Yersinia pestis; test: Antibacterial activity against Yersinia pestis Colorado 92 infected in African green monkey B6872 model assessed as bacterial burden in brain at 25 mg/kg, iv administered within 6 hrs post onset of sustained fever as 30 mins infusion for 5 days (reference value: 1.9 10^6CFU/g); type: functional, CO92
# [14] = system: Yersinia pestis; test: Antibacterial activity against Yersinia pestis Colorado 92 infected in African green monkey B6783 model assessed as bacterial burden in brain at 12.5 mg/kg, iv administered within 6 hrs post onset of sustained fever as 30 mins infusion for 5 days (reference value: 1.9 10^6CFU/g); type: functional, CO92
# [15] = system: Yersinia pestis; test: Antibacterial activity against Yersinia pestis Colorado 92 infected in African green monkey B6872 model assessed as bacterial burden in blood at 25 mg/kg, iv administered within 6 hrs post onset of sustained fever as 30 mins infusion for 5 days (reference value: 1.2 10^7CFU/ml); type: functional, organism-based; details: CO92
# [16] = system: Yersinia pestis; test: Antibacterial activity against Yersinia pestis Colorado 92 infected in African green monkey B6988 model assessed as bacterial burden in blood at 6.25 mg/kg, iv administered within 6 hrs post onset of sustained fever as 30 mins infusion for 5 days (reference value: 1.2 10^7CFU/ml); type: functional, CO92
# [17] = system: African green monkey; test: Toxicity in African green monkey B6127 model infected with Yersinia pestis Colorado 92 assessed as stomach ulcer at 25 mg/kg, iv administered within 6 hrs post onset of sustained fever as 30 mins infusion for 10 days measured by hematoxylin staining based assay; type: organism-based; details: chlorocebus sabaeus, in vivo
# [18] = system: African green monkey; test: Toxicity in African green monkey B6127 model infected with Yersinia pestis Colorado 92 assessed as dehydration at 25 mg/kg, iv administered within 6 hrs post onset of sustained fever as 30 mins infusion for 10 days; type: organism-based; details: chlorocebus sabaeus, in vivo
# [19] = system: African green monkey; test: Toxicity in African green monkey B6291 model infected with Yersinia pestis Colorado 92 assessed as serum creatinine level at 25 mg/kg, iv administered within 6 hrs post onset of sustained fever as 30 mins infusion for 10 days (reference value: 0.6 mg/dl); type: organism-based; details: chlorocebus sabaeus, in vivo
# [20] = system: African green monkey; test: Toxicity in African green monkey 7653 model infected with Yersinia pestis Colorado 92 assessed as serum creatinine level at 25 mg/kg, iv administered within 6 hrs post onset of sustained fever as 30 mins infusion for 10 days (reference value: 0.6 mg/dl); type: organism-based; details: chlorocebus sabaeus, in vivo
# [21] = system: African green monkey; test: Toxicity in African green monkey 7643 model infected with Yersinia pestis Colorado 92 assessed as serum gamma glutamyl-transferase level at 25 mg/kg, iv administered within 6 hrs post onset of sustained fever as 30 mins infusion for 10 days (reference value: 44 IU/L); type: organism-based; details: chlorocebus sabaeus, in vivo
# [22] = system: African green monkey; test: Toxicity in African green monkey B5994 model infected with Yersinia pestis Colorado 92 assessed as serum alanine aminotransferase level at 25 mg/kg, iv administered within 6 hrs post onset of sustained fever as 30 mins infusion for 10 days (reference value: 62 IU/L); type: organism-based; details: chlorocebus sabaeus, in vivo
# [23] = system: African green monkey; test: Toxicity in African green monkey B6408 model infected with Yersinia pestis Colorado 92 assessed as serum alanine aminotransferase level at 25 mg/kg, iv administered within 6 hrs post onset of sustained fever as 30 mins infusion for 10 days (reference value: 109 IU/L); type: organism-based; details: chlorocebus sabaeus, in vivo
# [24] = system: African green monkey; test: Toxicity in African green monkey 7929 model infected with Yersinia pestis Colorado 92 assessed as serum lactate dehydrogenase level at 25 mg/kg, iv administered within 6 hrs post onset of sustained fever as 30 mins infusion for 10 days (reference value: 653 IU/L); type: organism-based; details: chlorocebus sabaeus, in vivo
# [25] = Toxicity in African green monkey 7337 model infected with Yersinia pestis Colorado 92 assessed as total white blood cell count at 25 mg/kg, iv administered within 6 hrs post onset of sustained fever as 30 mins infusion for 10 days (reference value: 7.5 10^3/microL); type: organism-based; details: chlorocebus aethiops, in vivo
# [26] = Toxicity in African green monkey 7653 model infected with Yersinia pestis Colorado 92 assessed as total white blood cell count at 25 mg/kg, iv administered within 6 hrs post onset of sustained fever as 30 mins infusion for 10 days (reference value: 7.5 10^3/microL); type: organism-based; details: chlorocebus aethiops, in vivo
structure (smiles),measurement,setting,value
CN[C@@H]1[C@@H](O)[C@@H](O[C@@H]2[C@@H](O)[C@H](O[C@H]3OC(CNCCO)=CC[C@H]3N)[C@@H](N)C[C@H]2NC(=O)[C@@H](O)CCN)OC[C@]1(C)O [PLAZOMICIN],Activity,[1],16 CFU/g
same,AUC(0-t) at 24 h,[2],306 µg·h/mL
same,clearance,[3],1.67 mL/min/kg
same,Activity,[4],0.6 mg/dL
same,survival at 25 mg/kg,[5],69%
same,Activity,[6],Active
same,Activity,[7],21 CFU/g
same,Activity,[8],2.2 ×10⁹ CFU/g
same,Activity,[9],38 CFU/g
same,Activity,[10],Below limit of detection
same,Activity,[11],Below limit of detection
same,Activity,[12],6.4 ×10⁷ CFU/g
same,Activity,[13],4.1 ×10⁶ CFU/g
same,Activity,[14],33 CFU/g
same,Activity,[15],Below limit of detection
same,Activity,[16],11 CFU/ml
same,Activity,[17],Toxic
same,Activity,[18],Toxic
same,Activity,[19],0.5 mg/dL
same,Activity,[20],0.8 mg/dL
same,Activity,[21],35 IU/L
same,Activity,[22],46 IU/L
same,Activity,[23],94 IU/L
same,Activity,[24],496 IU/L
same,Activity,[25],5 ×10³ /uL
same,Activity,[26],5.8 ×10³ /uL
